target: T1, KCNT1 (KNa1.1, Slack) (Homo sapiens, UniProt Q5JUK3); experiment: KCNT1 patch clamp assay (SyncroPatch 384PE, tetracycline inducible HEK-TREX cell line); type: cell-based; conditions: WT KCNT1, HEK-TREX cells, perforated patch, step from -80 mV to 0 mV, room temperature; read-out: WT (KCNT1 inhibition IC50)
T1 construct: expressed in transfected cells; host or cells: HEK-TREX (tetracycline inducible cell line)
T1 sequence (Q5JUK3 1-1230): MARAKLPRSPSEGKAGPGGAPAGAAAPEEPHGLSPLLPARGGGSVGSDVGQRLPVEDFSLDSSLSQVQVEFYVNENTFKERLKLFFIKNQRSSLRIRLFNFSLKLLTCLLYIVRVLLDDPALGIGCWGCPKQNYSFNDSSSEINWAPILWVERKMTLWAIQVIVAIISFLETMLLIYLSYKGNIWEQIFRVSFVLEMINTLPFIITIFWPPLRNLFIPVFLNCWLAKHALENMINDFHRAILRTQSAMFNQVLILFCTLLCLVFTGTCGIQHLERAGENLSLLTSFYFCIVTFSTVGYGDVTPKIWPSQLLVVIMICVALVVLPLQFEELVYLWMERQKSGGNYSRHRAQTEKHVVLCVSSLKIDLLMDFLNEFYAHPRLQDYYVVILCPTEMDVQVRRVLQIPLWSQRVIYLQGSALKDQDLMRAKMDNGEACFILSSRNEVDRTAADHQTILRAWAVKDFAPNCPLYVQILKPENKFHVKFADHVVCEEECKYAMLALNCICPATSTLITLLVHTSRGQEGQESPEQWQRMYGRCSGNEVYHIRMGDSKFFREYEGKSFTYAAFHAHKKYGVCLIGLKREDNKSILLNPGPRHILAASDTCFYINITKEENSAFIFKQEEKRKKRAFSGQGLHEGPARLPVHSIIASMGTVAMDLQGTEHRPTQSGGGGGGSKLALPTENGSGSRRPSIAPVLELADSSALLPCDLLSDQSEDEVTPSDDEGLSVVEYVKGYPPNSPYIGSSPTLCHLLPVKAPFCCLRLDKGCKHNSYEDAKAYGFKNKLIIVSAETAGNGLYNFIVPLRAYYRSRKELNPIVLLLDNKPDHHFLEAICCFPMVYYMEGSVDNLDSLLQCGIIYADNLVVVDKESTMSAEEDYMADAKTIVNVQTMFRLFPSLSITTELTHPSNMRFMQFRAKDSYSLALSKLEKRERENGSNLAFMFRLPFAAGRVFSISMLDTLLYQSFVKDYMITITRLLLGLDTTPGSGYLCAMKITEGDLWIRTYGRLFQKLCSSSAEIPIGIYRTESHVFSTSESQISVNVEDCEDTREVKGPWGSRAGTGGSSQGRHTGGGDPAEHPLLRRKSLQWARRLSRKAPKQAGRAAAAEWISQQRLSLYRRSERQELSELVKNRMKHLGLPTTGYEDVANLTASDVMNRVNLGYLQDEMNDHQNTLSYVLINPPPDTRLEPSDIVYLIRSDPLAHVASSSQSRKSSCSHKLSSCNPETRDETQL
Procedure: Inhibition of KCNT1 (KNa1.1, Slack) was evaluated using a tetracycline inducible cell line (HEK-TREX). Currents were recorded using the SyncroPatch 384PE automated, patch clamp system. Pulse generation and data collection were performed with PatchController384 V1.3.0 and DataController384 V1.2.1 (Nanion Technologies). The access resistance and apparent membrane capacitance were estimated using built-in protocols. Current was recorded in perforated patch mode (10 μM escin) from a population of cells. The cells were lifted, triturated, and resuspended at 800,000 cells/ml. The cells were allowed to recover in the cell hotel prior to experimentation. Currents were recorded at room temperature. The external solution contained the following (in mM): NaCl 105, NMDG 40, KCl 4, MgCl2 1, CaCl2 5, and HEPES 10 (pH=7.4, Osmolarity ˜300 mOsm). The extracellular solution was used as the wash, reference, and compound delivery solution. The internal solution contained the following (in mM): NaCl 70, KF 70, KCl 10, EGTA 5, HEPES 5, and Escin 0.01 (pH=7.2, Osmolarity ˜295 mOsm). Escin is made at a 5 mM stock in water, aliquoted, and stored at −20° C. The compound plate was created at 2× concentrated in the extracellular solution. The compound was diluted to 1:2 when added to the recording well. The amount of DMSO in the extracellular solution was held constant at the level used for the highest tested concentration. A holding potential of −80 mV with a 100 ms step to 0 mV was used. Mean current was measured during the step to 0 mV. […] The average mean current from 3 sweeps was calculated and the percent inhibition of each compound was calculated. The percent inhibition as a function of the compound concentration was fit with a Hill equation to derive IC50, slope, minimum parameters, and maximum parameters. If KCNT1 inhibition was less than 50% at the highest tested concentration or if an IC50 could not be calculated, then a percent inhibition was reported in place of the IC50.
In this table, “A” indicates IC50 of less than or equal to 1 μM; “B” indicates inhibition of between 1 μM to 20 μM; and “C” indicates inhibition of greater than or equal to 20 μM.

Row | SMILES | IC50 [nM]
1 | CC(NC(=O)c1cc(C(F)(F)F)nn1C)c1cc(-c2ccnc(C(F)(F)F)c2)nn1C (single isomer, unassigned) [Compound 1001] | ≤ 1000
2 | CC(NC(=O)c1cc(C(F)(F)F)nn1C)c1cc(-c2ccncc2)nn1C (single isomer, unassigned) [Compound 1003] | ≥ 20000
3 | CCn1nc(-c2ccnc(C(F)(F)F)c2)cc1C(C)NC(=O)c1cc(C(F)(F)F)nn1C (single isomer, unassigned) [Compound 1004] | ≤ 1000
4 | Cc1cc(-c2cc(C(C)NC(=O)c3cc(C(F)(F)F)nn3C)n(C)n2)ccn1 (single isomer, unassigned) [Compound 1005] | 1000 to 20000
5 | Cc1cc(-c2cc(C(C)NC(=O)c3cc(C(F)(F)F)nn3C)n(C)n2)ccn1 (single isomer, unassigned) [Compound 1006] | 1000 to 20000
6 | CCn1nc(-c2ccnc(C(F)(F)F)c2)cc1C(C)NC(=O)c1cc(C(F)(F)F)nn1C (single isomer, unassigned) [Compound 1007] | ≤ 1000
7 | CC(NC(=O)c1cc(C(F)(F)F)nn1C)c1cc(-c2ccncc2)nn1C (single isomer, unassigned) [Compound 1008] | 1000 to 20000
8 | CC(NC(=O)c1cc(C(F)(F)F)nn1C)c1cc(-c2ccccc2)nn1C (single isomer, unassigned) [Compound 1010] | 1000 to 20000
9 | CC(NC(=O)c1cc(C(F)(F)F)nn1C)c1cc(-c2ccccc2)nn1C (single isomer, unassigned) [Compound 1011] | 1000 to 20000
10 | CC(NC(=O)c1cc(C(F)(F)F)nn1C)c1cc(C(F)(F)F)nn1C (single isomer, unassigned) [Compound 1014] | 1000 to 20000
11 | CC(NC(=O)c1cc(C(F)(F)F)nn1C)c1cc(C(F)(F)F)nn1C (single isomer, unassigned) [Compound 1015] | 1000 to 20000
12 | CC(NC(=O)c1cc(C(F)(F)F)nn1C)c1cc(-c2ccc(CO)nc2)nn1C (stereo not shown) [Compound 1009] | ≥ 20000
13 | Cc1ncc(-c2cc(C(C)NC(=O)c3cc(C(F)(F)F)nn3C)n(C)n2)cn1 (stereo not shown) [Compound 1012] | ≥ 20000
14 | COc1ccc(-c2cc(C(C)NC(=O)c3cc(C(F)(F)F)nn3C)n(C)n2)cn1 (stereo not shown) [Compound 1013] | ≤ 1000
15 | CC(NC(=O)c1cc(C(F)(F)F)nn1C)c1cc(-c2ccc(C#N)nc2)nn1C (stereo not shown) [Compound 1016] | ≥ 20000
16 | Cc1cccc(-c2cc(C(C)NC(=O)c3cc(C(F)(F)F)nn3C)n(C)n2)n1 (stereo not shown) [Compound 1017] | 1000 to 20000
17 | CC(NC(=O)c1cc(C(F)(F)F)nn1C)c1cc(-c2ccc(C(F)(F)F)nc2)nn1C (stereo not shown) [Compound 1018] | 1000 to 20000
18 | Cn1nc(-c2ccnc(C(F)(F)F)c2)cc1CNC(=O)c1cc(C(F)(F)F)nn1C [Compound 1019] | ≤ 1000
19 | CC(NC(=O)c1cc(C(F)(F)F)nn1C)c1cc(-c2ccnc(C(F)(F)F)c2)nn1C (stereo not shown) [Compound 1020] | ≤ 1000
20 | CC(NC(=O)c1cc(C(F)(F)F)nn1C)c1cc(-c2ccc(C#N)cc2)nn1C (stereo not shown) [Compound 1021] | 1000 to 20000

Row | SMILES | IC50 [nM]
21 | CC(NC(=O)c1cc(C(F)(F)F)nn1C)c1cc(-c2ccc(C(N)=O)cc2)nn1C (stereo not shown) [Compound 1022] | ≥ 20000
22 | CC(NC(=O)c1cc(C(F)(F)F)nn1C)c1cc(N2CCCCC2)nn1C (stereo not shown) [Compound 1023] | 1000 to 20000
23 | CC(NC(=O)c1cc(C(F)(F)F)nn1C)c1cc(Nc2ccccc2)nn1C (stereo not shown) [Compound 1024] | 1000 to 20000
24 | CC(NC(=O)c1cc(C(F)(F)F)nn1C)c1cc(N(C)c2ccccc2)nn1C (stereo not shown) [Compound 1025] | 1000 to 20000
25 | CC(NC(=O)c1cc(C(F)(F)F)nn1C)c1cc(NC2CCCC2)nn1C (stereo not shown) [Compound 1026] | ≥ 20000
26 | CC(NC(=O)c1cc(C(F)(F)F)nn1C)c1cc(N(C)C2CCCC2)nn1C (stereo not shown) [Compound 1027] | 1000 to 20000
27 | CC(NC(=O)c1cc(C(F)(F)F)nn1C)c1cc(Cc2ccccc2)nn1C (stereo not shown) [Compound 1028] | 1000 to 20000
28 | CCn1nc(-c2ccnc(C(F)(F)F)c2)cc1CNC(=O)c1cc(C(F)(F)F)nn1C [Compound 1029] | ≤ 1000
29 | Cc1c(-c2ccnc(C(F)(F)F)c2)nn(C)c1CNC(=O)c1cc(C(F)(F)F)nn1C [Compound 1030] | ≤ 1000
30 | CC(C)Oc1cc(C(C)NC(=O)c2cc(C(F)(F)F)nn2C)n(C)n1 (stereo not shown) [Compound 1031] | ≥ 20000
31 | CC(NC(=O)c1cc(C(F)(F)F)nn1C)c1cc(Oc2ccccc2)nn1C (stereo not shown) [Compound 1032] | 1000 to 20000
32 | Cn1nc(-c2ccnc(C(F)(F)F)c2)cc1CNC(=O)c1cc(C(F)F)nn1C [Compound 1033] | ≤ 1000
33 | Cn1nc(C(F)F)cc1C(=O)NC1(c2cc(-c3ccnc(C(F)(F)F)c3)nn2C)CC1 [Compound 1034] | ≤ 1000
34 | Cn1nc(C(F)(F)F)cc1C(=O)NC1(c2cc(-c3ccnc(C(F)(F)F)c3)nn2C)CC1 [Compound 1035] | ≤ 1000
35 | COc1cc(-c2cc(CNC(=O)c3cc(C(F)(F)F)nn3C)n(C)n2)ccn1 [Compound 1036] | ≤ 1000
36 | CCOc1cc(-c2cc(CNC(=O)c3cc(C(F)(F)F)nn3C)n(C)n2)ccn1 [Compound 1037] | ≤ 1000
37 | Cn1nc(-c2ccnc(C3CC3)c2)cc1CNC(=O)c1cc(C(F)(F)F)nn1C [Compound 1038] | ≤ 1000
38 | CC(C)c1cc(C(=O)NCc2cc(-c3ccnc(C(F)(F)F)c3)nn2C)n(C)n1 [Compound 1039] | ≤ 1000
39 | Cn1nc(-c2ccnc(C(F)(F)F)c2)cc1CNC(=O)c1ccccc1 [Compound 1040] | ≤ 1000
40 | Cc1cc(-c2cc(CNC(=O)c3cc(C(F)(F)F)nn3C)n(C)n2)c(F)cn1 [Compound 1041] | ≤ 1000

Reference: patent publication US20250346576A1, “KCNT1 INHIBITORS COMPRISING A PYRAZOLE CORE AND METHODS OF USE” (PRAXIS PRECISION MEDICINES, INC., priority 2022, published 2025)
